Earlier results on one compound are cited in patent publication US20070098804A1, “Solid particulate tadalafil having a bimodal particle size distribution” (priority 2005, published 2007).

The conditions of this data set: crystalline solid, reported in the PDR.

Consider `CN1CC(=O)N2[C@H](c3ccc4c(c3)OCO4)c3[nH]c4ccccc4c3C[C@@H]2C1=O` [Tadalafil], for which the solubility in water entry is listed as “practically insoluble in water”.
